Tests used:
Format in all cases: in vivo
[1] = test system: lambsquarters (Chenopodium album); assay: Test B pre/postemergence
Summary of the method: (§1)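 Visual rating, 0 (no effect) to 100 (complete control) versus controls, taken 13–15 days after treatment in greenhouse. Compounds formulated in non-phytotoxic solvent plus surfactant; pre: sprayed after seeding; post: plants at 1- to 4-leaf stage, 2–18 cm.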

[2] = test system: wheat (Triticum aestivum); assay: Test B pre/postemergence
Summary of the method: as §1

[3] = test system: giant foxtail (Setaria faberii); assay: Test B pre/postemergence
Summary of the method: as §1

[4] = test system: velvetleaf (Abutilon theophrasti); assay: Test B pre/postemergence
Summary of the method: as §1

[5] = test system: pigweed (Amaranthus retroflexus); assay: Test B pre/postemergence
Summary of the method: as §1

[6] = test system: corn (Zea mays); assay: Test B pre/postemergence
Summary of the method: as §1

[7] = test system: cocklebur (Xanthium strumarium); assay: Test B pre/postemergence
Summary of the method: as §1

[8] = test system: morningglory (Ipomoea coccinea); assay: Test B pre/postemergence
Summary of the method: as §1

[9] = test system: barnyardgrass (Echinochloa crus-galli); assay: Test B pre/postemergence
Summary of the method: as §1

[10] = test system: crabgrass (Digitaria sanguinalis); assay: Test B pre/postemergence
Summary of the method: as §1

[11] = test system: Surinam grass (Brachiaria decumbens); assay: Test B pre/postemergence
Summary of the method: as §1

[12] = test system: rice (Oryza sativa); assay: Test B flooded paddy test; settings: Flood, 1000 g ai/ha; scale 0 to 100
Summary of the method: (§2)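 Rice, umbrella sedge, duck salad and barnyardgrass grown to 2-leaf stage under flooded paddy conditions and treated with formulated test chemicals. Kept in greenhouse 13–15 days, then visually rated against untreated controls on a 0–100 scale (0 no effect, 100 complete control).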

[13] = test system: umbrella sedge (Cyperus difformis); assay: Test B flooded paddy test; settings: Flood, 1000 g ai/ha; scale 0 to 100
Summary of the method: as §2

[14] = test system: duck salad (Heteranthera limosa); assay: Test B flooded paddy test; settings: Flood, 1000 g ai/ha; scale 0 to 100
Summary of the method: as §2

[15] = test system: barnyardgrass (Echinochloa crus-galli); assay: Test B flooded paddy test; settings: Flood, 1000 g ai/ha; scale 0 (no effect) to 100 (complete control)
Summary of the method: as §2

[16] = test system: wild oat (Avena fatua); assay: Test B postemergence; settings: for Oat, Wild plant response rating: 125 g ai/ha, scale 0 to 100 (0 no effect, 100 complete control); for Plant response rating, Oat, Wild: 500 g ai/ha, scale 0 to 100
Summary of the method: as §1

[17] = test system: blackgrass (Alopecurus myosuroides); assay: Test B postemergence; settings: for Blackgrass plant response rating: 125 g ai/ha, scale 0 to 100 (0 no effect, 100 complete control); for Plant response rating, Blackgrass: 500 g ai/ha, scale 0 to 100
Summary of the method: as §1

[18] = Postemergence, 125 g ai/ha, scale 0 to 100 (0 no effect, 100 complete control)
[19] = Postemergence, 500 g ai/ha, scale 0 to 100
[20] = Preemergence, 500 g ai/ha, scale 0 to 100 (0 no effect, 100 complete control)
[21] = Preemergence, 125 g ai/ha, scale 0 to 100 (0 no effect, 100 complete control)

CC(=O)NN=Cc1nc(C2CC2)nc(N)c1Br [Compound 51]
Lambsquarters plant response rating [1, 18]: 80 | Plant response rating, Lambsquarters [1, 19]: 90 | Plant response rating, Lambsquarters [1, 20]: 80 | Wheat plant response rating [2, 18]: 30 | Plant response rating, Wheat [2, 19]: 40 | Plant response rating, Wheat [2, 21]: 0 | Plant response rating, Wheat [2, 20]: 0 | Foxtail, Giant plant response rating [3, 18]: 0 | Plant response rating, Foxtail, Giant [3, 19]: 30 | Plant response rating, Foxtail, Giant [3, 21]: 0 | Plant response rating, Foxtail, Giant [3, 20]: 0 | Velvetleaf plant response rating [4, 18]: 70 | Plant response rating, Velvetleaf [4, 19]: 80 | Plant response rating, Velvetleaf [4, 21]: 0 | Plant response rating, Velvetleaf [4, 20]: 0 | Pigweed plant response rating [5, 18]: 80 | Plant response rating, Pigweed [5, 19]: 90 | Plant response rating, Pigweed [5, 21]: 10 | Plant response rating, Pigweed [5, 20]: 70 | Corn plant response rating [6, 18]: 0 | Plant response rating, Corn [6, 19]: 0 | Plant response rating, Corn [6, 21]: 0 | Plant response rating, Corn [6, 20]: 0 | Cocklebur plant response rating [7, 18]: 80 | Plant response rating, Cocklebur [7, 19]: 90 | Plant response rating, Cocklebur [7, 21]: 0 | Plant response rating, Cocklebur [7, 20]: 20 | Morningglory plant response rating [8, 18]: 80 | Plant response rating, Morningglory [8, 19]: 90 | Plant response rating, Morningglory [8, 21]: 0 | Plant response rating, Morningglory [8, 20]: 40 | Barnyardgrass plant response rating [9, 18]: 20 | Plant response rating, Barnyardgrass [9, 19]: 60 | Plant response rating, Barnyardgrass [9, 21]: 0 | Plant response rating, Barnyardgrass [9, 20]: 0 | Crabgrass plant response rating [10, 18]: 30 | Plant response rating, Crabgrass [10, 19]: 60 | Plant response rating, Crabgrass [10, 21]: 0 | Plant response rating, Crabgrass [10, 20]: 0 | Surinam Grass plant response rating [11, 18]: 0 | Plant response rating, Surinam Grass [11, 19]: 40 | Plant response rating, Surinam Grass [11, 21]: 0 | Plant response rating, Surinam Grass [11, 20]: 0 | Plant response rating, Rice [12]: 0 | Plant response rating, Sedge, Umbrella [13]: 0 | Plant response rating, Ducksalad [14]: 0 | Plant response rating, Barnyardgrass [15]: 0 | Oat, Wild plant response rating [16]: 20 | Plant response rating, Oat, Wild [16]: 30 | Blackgrass plant response rating [17]: 20 | Plant response rating, Blackgrass [17]: 30

CN(C)N=Cc1nc(C2CC2)nc(N)c1Br [Compound 50]
Lambsquarters plant response rating [1, 18]: 80 | Plant response rating, Lambsquarters [1, 19]: 90 | Plant response rating, Lambsquarters [1, 21]: 90 | Plant response rating, Lambsquarters [1, 20]: 100 | Wheat plant response rating [2, 18]: 30 | Plant response rating, Wheat [2, 19]: 60 | Plant response rating, Wheat [2, 21]: 20 | Plant response rating, Wheat [2, 20]: 40 | Foxtail, Giant plant response rating [3, 18]: 20 | Plant response rating, Foxtail, Giant [3, 19]: 70 | Plant response rating, Foxtail, Giant [3, 21]: 10 | Plant response rating, Foxtail, Giant [3, 20]: 40 | Velvetleaf plant response rating [4, 18]: 70 | Plant response rating, Velvetleaf [4, 19]: 90 | Plant response rating, Velvetleaf [4, 21]: 80 | Plant response rating, Velvetleaf [4, 20]: 90 | Pigweed plant response rating [5, 18]: 80 | Plant response rating, Pigweed [5, 19]: 90 | Plant response rating, Pigweed [5, 21]: 70 | Plant response rating, Pigweed [5, 20]: 90 | Corn plant response rating [6, 18]: 0 | Plant response rating, Corn [6, 19]: 40 | Plant response rating, Corn [6, 21]: 20 | Plant response rating, Corn [6, 20]: 20 | Cocklebur plant response rating [7, 18]: 90 | Plant response rating, Cocklebur [7, 19]: 90 | Plant response rating, Cocklebur [7, 21]: 80 | Plant response rating, Cocklebur [7, 20]: 90 | Morningglory plant response rating [8, 18]: 90 | Plant response rating, Morningglory [8, 19]: 90 | Plant response rating, Morningglory [8, 21]: 80 | Plant response rating, Morningglory [8, 20]: 90 | Barnyardgrass plant response rating [9, 18]: 10 | Plant response rating, Barnyardgrass [9, 19]: 50 | Plant response rating, Barnyardgrass [9, 21]: 30 | Plant response rating, Barnyardgrass [9, 20]: 50 | Crabgrass plant response rating [10, 18]: 40 | Plant response rating, Crabgrass [10, 19]: 80 | Plant response rating, Crabgrass [10, 21]: 50 | Plant response rating, Crabgrass [10, 20]: 80 | Surinam Grass plant response rating [11, 18]: 20 | Plant response rating, Surinam Grass [11, 19]: 60 | Plant response rating, Surinam Grass [11, 21]: 20 | Plant response rating, Surinam Grass [11, 20]: 70 | Plant response rating, Rice [12]: 30 | Plant response rating, Sedge, Umbrella [13]: 0 | Plant response rating, Ducksalad [14]: 40 | Plant response rating, Barnyardgrass [15]: 30 | Oat, Wild plant response rating [16]: 30 | Plant response rating, Oat, Wild [16]: 60 | Blackgrass plant response rating [17]: 30 | Plant response rating, Blackgrass [17]: 50
